The numbers were not newly measured in patent US9149436B2, “Pharmaceutical product comprising a sequestered agent” (Purdue Pharma L.P., priority 2003, dated 2015), which cites them from elsewhere.

The conditions of this series: after oral doses.

`O=C1CC[C@@]2(O)[C@H]3Cc4ccc(O)c5c4[C@@]2(CCN3CC2CC2)[C@H]1O5` [naltrexone]: the duration of action was ~24 h.
Turning to `C[C@H]1[C@H]2Cc3ccc(O)cc3[C@]1(C)CCN2CC1CC1` [cyclazocine], the duration of action was ~24 h.
